PubChem BioAssay AID1963830 (Molecular Pharmacology Branch, DTP, NCI, 2024)

Tested on: 922993-354-T-J3-PDC complex spheroid viability
Test: Anticancer human tumor 922993-354-T-J3-PDC patient-derived endometrial carcinoma cell line growth inhibition [POLQ]
Settings: for IC50: curve of first compound; for viability, T/C: stronger effect = lower value
Outline: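 Complex spheroid viability model combining PDC tumour cells with endothelial (HUVEC) and MSC stromal cells. Novobiocin, ART-558 or RP6685 were tested singly and in combination with standard and investigational anticancer drugs. Each was titrated in half-log steps from near clinical Cmax, or from 10 microM where Cmax was unknown.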

[1] = second compound 0.0316 µM, first compound 0.0316 µM
[2] = second compound 0.0316 µM, first compound 0.1 µM
[3] = second compound 0.0316 µM, first compound 0.316 µM
[4] = second compound 0.0316 µM, first compound 1 µM
[5] = second compound 0.0316 µM, first compound 3.16 µM
[6] = second compound 0.0316 µM, first compound 10 µM
[7] = second compound 0.1 µM, first compound 0.0316 µM
[8] = second compound 0.1 µM, first compound 0.1 µM
[9] = second compound 0.1 µM, first compound 0.316 µM
[10] = second compound 0.1 µM, first compound 1 µM
[11] = second compound 0.1 µM, first compound 3.16 µM
[12] = second compound 0.1 µM, first compound 10 µM
[13] = second compound 0.316 µM, first compound 0.0316 µM
[14] = second compound 0.316 µM, first compound 0.1 µM
[15] = second compound 0.316 µM, first compound 0.316 µM
[16] = second compound 0.316 µM, first compound 1 µM
[17] = second compound 0.316 µM, first compound 3.16 µM
[18] = second compound 0.316 µM, first compound 10 µM
[19] = second compound 1 µM, first compound 0.0316 µM
[20] = second compound 1 µM, first compound 0.1 µM
[21] = second compound 1 µM, first compound 0.316 µM
[22] = second compound 1 µM, first compound 1 µM
[23] = second compound 1 µM, first compound 3.16 µM
[24] = second compound 1 µM, first compound 10 µM
[25] = second compound 3.16 µM, first compound 0.0316 µM
[26] = second compound 3.16 µM, first compound 0.1 µM
[27] = second compound 3.16 µM, first compound 0.316 µM
[28] = second compound 3.16 µM, first compound 1 µM
[29] = second compound 3.16 µM, first compound 3.16 µM
[30] = second compound 3.16 µM, first compound 10 µM
[31] = second compound 10 µM, first compound 0.0316 µM
[32] = second compound 10 µM, first compound 0.1 µM
[33] = second compound 10 µM, first compound 0.316 µM
[34] = second compound 10 µM, first compound 1 µM
[35] = second compound 10 µM, first compound 3.16 µM
[36] = second compound 10 µM, first compound 10 µM
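Also: spheroids exposed to the agents for one week.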
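For viability, T/C in this document: 100% = DMSO vehicle control wells.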

CC1COCCN1c1cc(C2(O)CC3CCC(C2)O3)c2cnn(-c3ccn[nH]3)c2n1 (stereo unspecified) + COC1C(OC(N)=O)C(O)C(Oc2ccc3c(O)c(NC(=O)c4ccc(O)c(CC=C(C)C)c4)c(=O)oc3c2C)OC1(C)C
IC50 (second compound 0.0316 µM): 337 nM | IC50 (second compound 0.1 µM): 371 nM | IC50 (second compound 0.316 µM): 361 nM | IC50 (second compound 1 µM): 383 nM | IC50 (second compound 3.16 µM): 361 nM | IC50 (second compound 10 µM): 393 nM | viability, T/C [1]: 101% | viability, T/C [2]: 80.6% | viability, T/C [3]: 54.1% | viability, T/C [4]: 23.1% | viability, T/C [5]: 8.69% | viability, T/C [6]: 11.8% | viability, T/C [7]: 107% | viability, T/C [8]: 68.5% | viability, T/C [9]: 66.4% | viability, T/C [10]: 26.7% | viability, T/C [11]: 10.4% | viability, T/C [12]: 10.7% | viability, T/C [13]: 96% | viability, T/C [14]: 89.6% | viability, T/C [15]: 53.3% | viability, T/C [16]: 20.5% | viability, T/C [17]: 9.11% | viability, T/C [18]: 10.8% | viability, T/C [19]: 99.5% | viability, T/C [20]: 93.7% | viability, T/C [21]: 55.1% | viability, T/C [22]: 21.1% | viability, T/C [23]: 8.57% | viability, T/C [24]: 11.2% | viability, T/C [25]: 100% | viability, T/C [26]: 84.9% | viability, T/C [27]: 54.1% | viability, T/C [28]: 23.2% | viability, T/C [29]: 10.7% | viability, T/C [30]: 9.88% | viability, T/C [31]: 93.8% | viability, T/C [32]: 76.1% | viability, T/C [33]: 60.5% | viability, T/C [34]: 17.4% | viability, T/C [35]: 10.4% | viability, T/C [36]: 10.3%

O=C(Nc1ccc(O)c(NS(=O)(=O)c2ccc(F)cc2)c1)c1ccc(-c2ccccc2)cc1 + COC1C(OC(N)=O)C(O)C(Oc2ccc3c(O)c(NC(=O)c4ccc(O)c(CC=C(C)C)c4)c(=O)oc3c2C)OC1(C)C
IC50 (second compound 0.0316 µM): > 10000 nM | IC50 (second compound 0.1 µM): > 10000 nM | IC50 (second compound 0.316 µM): > 10000 nM | IC50 (second compound 1 µM): > 10000 nM | IC50 (second compound 3.16 µM): > 10000 nM | IC50 (second compound 10 µM): > 10000 nM | viability, T/C [1]: 107% | viability, T/C [2]: 91.7% | viability, T/C [3]: 95.1% | viability, T/C [4]: 98.3% | viability, T/C [5]: 99.8% | viability, T/C [6]: 95.6% | viability, T/C [7]: 116% | viability, T/C [8]: 97.1% | viability, T/C [9]: 101% | viability, T/C [10]: 99.3% | viability, T/C [11]: 84% | viability, T/C [12]: 102% | viability, T/C [13]: 104% | viability, T/C [14]: 100% | viability, T/C [15]: 97.5% | viability, T/C [16]: 101% | viability, T/C [17]: 93.3% | viability, T/C [18]: 101% | viability, T/C [19]: 104% | viability, T/C [20]: 97.4% | viability, T/C [21]: 97.6% | viability, T/C [22]: 96.4% | viability, T/C [23]: 101% | viability, T/C [24]: 94.7% | viability, T/C [25]: 93.9% | viability, T/C [26]: 92.2% | viability, T/C [27]: 93.7% | viability, T/C [28]: 90.8% | viability, T/C [29]: 107% | viability, T/C [30]: 94.2% | viability, T/C [31]: 86.2% | viability, T/C [32]: 81.1% | viability, T/C [33]: 97.8% | viability, T/C [34]: 73.7% | viability, T/C [35]: 89.3% | viability, T/C [36]: 96.5%

COc1cccc2c1C(=O)c1c(O)c3c(c(O)c1C2=O)CC(O)(C(=O)CO)CC3OC1CC(N)C(O)C(C)O1 (stereo unspecified) + Cc1cccc(N(C)C(=O)C2C(O)CCN2c2nc(C)cc(C(F)(F)F)c2C#N)c1
IC50 (second compound 0.0316 µM): 1270 nM | IC50 (second compound 0.1 µM): 1210 nM | IC50 (second compound 0.316 µM): 947 nM | IC50 (second compound 1 µM): 1120 nM | IC50 (second compound 3.16 µM): 555 nM | IC50 (second compound 10 µM): 186 nM | viability, T/C [1]: 96.3% | viability, T/C [2]: 88% | viability, T/C [3]: 81.4% | viability, T/C [4]: 51.8% | viability, T/C [5]: 32.3% | viability, T/C [6]: 11.7% | viability, T/C [7]: 101% | viability, T/C [8]: 97.2% | viability, T/C [9]: 81.6% | viability, T/C [10]: 55.1% | viability, T/C [11]: 26.4% | viability, T/C [12]: 11.6% | viability, T/C [13]: 103% | viability, T/C [14]: 92.7% | viability, T/C [15]: 84.9% | viability, T/C [16]: 45% | viability, T/C [17]: 27.2% | viability, T/C [18]: 12.9% | viability, T/C [19]: 105% | viability, T/C [20]: 95.9% | viability, T/C [21]: 72.6% | viability, T/C [22]: 53.6% | viability, T/C [23]: 28.8% | viability, T/C [24]: 10.3% | viability, T/C [25]: 88.2% | viability, T/C [26]: 93.3% | viability, T/C [27]: 60.3% | viability, T/C [28]: 35.8% | viability, T/C [29]: 17.7% | viability, T/C [30]: 7.76% | viability, T/C [31]: 94.3% | viability, T/C [32]: 65.2% | viability, T/C [33]: 38.3% | viability, T/C [34]: 16.5% | viability, T/C [35]: 11.8% | viability, T/C [36]: 11.6%
